According to ChEMBL document CHEMBL4406914, “Impact of Minor Structural Modifications on Properties of a Series of mTOR Inhibitors” (ACS Med Chem Lett, 2019):
Values after ≈ are worked out from the molar mass of the structure shown. Active and inactive are the calls of the source. The calls are words filed in the database; no cut-off is given here.

Assays:
[1] = target: Phosphatidylinositol 4-phosphate 3-kinase C2 domain-containing subunit beta (Homo sapiens) (UniProt O00750); assay: Inhibition of wild-type human partial length PIK3C2B (M1 to L1634 residues) expressed in mammalian expression system at 10 uM by Kinomescan method
Phosphatidylinositol 4-phosphate 3-kinase C2 domain-containing subunit beta (Homo sapiens), sequence (O00750 whole entry, the tested form may be a part): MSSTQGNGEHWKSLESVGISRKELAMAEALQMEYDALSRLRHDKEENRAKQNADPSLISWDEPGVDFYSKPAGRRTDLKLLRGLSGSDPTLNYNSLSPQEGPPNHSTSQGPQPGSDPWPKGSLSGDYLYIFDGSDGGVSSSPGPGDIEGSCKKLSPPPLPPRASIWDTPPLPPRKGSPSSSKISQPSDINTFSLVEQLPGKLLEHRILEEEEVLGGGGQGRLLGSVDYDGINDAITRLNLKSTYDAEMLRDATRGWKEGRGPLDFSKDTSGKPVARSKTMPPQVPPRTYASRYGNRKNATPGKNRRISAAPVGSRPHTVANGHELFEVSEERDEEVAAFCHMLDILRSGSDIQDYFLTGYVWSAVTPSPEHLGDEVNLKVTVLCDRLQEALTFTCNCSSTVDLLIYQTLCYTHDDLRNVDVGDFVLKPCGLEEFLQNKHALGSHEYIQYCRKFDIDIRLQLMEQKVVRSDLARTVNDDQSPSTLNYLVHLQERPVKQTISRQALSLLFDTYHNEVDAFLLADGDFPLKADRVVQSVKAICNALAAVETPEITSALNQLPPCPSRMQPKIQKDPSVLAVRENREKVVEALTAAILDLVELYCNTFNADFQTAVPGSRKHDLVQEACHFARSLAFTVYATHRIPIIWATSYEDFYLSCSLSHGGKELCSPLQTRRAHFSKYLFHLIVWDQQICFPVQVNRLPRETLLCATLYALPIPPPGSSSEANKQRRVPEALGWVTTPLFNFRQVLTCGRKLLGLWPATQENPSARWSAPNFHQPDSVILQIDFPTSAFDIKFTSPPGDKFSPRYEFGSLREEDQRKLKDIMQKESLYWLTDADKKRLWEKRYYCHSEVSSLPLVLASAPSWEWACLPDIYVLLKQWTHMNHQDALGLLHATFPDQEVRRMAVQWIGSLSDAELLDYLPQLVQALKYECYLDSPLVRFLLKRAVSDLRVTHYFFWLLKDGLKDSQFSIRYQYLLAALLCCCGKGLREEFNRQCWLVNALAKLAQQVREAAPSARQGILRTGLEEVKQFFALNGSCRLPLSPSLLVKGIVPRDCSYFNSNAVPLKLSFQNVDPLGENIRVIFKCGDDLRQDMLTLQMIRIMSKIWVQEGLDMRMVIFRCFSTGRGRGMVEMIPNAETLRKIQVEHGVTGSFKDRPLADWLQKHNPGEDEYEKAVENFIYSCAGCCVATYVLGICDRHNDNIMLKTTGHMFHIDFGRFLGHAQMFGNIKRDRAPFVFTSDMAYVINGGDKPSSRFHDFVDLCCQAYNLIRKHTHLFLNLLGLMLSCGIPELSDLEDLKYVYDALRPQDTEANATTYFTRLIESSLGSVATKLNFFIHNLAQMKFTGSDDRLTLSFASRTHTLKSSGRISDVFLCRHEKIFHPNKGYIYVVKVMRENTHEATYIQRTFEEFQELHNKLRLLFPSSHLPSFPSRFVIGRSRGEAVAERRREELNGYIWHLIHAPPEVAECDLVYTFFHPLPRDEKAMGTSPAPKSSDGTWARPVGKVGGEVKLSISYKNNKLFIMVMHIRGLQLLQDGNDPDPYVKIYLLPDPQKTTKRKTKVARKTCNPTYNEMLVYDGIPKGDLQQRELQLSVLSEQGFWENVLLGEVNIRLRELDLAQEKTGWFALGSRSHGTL

[2] = Hepatic intrinsic clearance in human Hepatocytes assessed per at 1 uM measured upto 90 mins by LC-MS/MS analysis; assay type: ADME, cell-based, Hepatocyte; details: 1.5 h
mTORC2 = mTORC2 (Homo sapiens, UniProt P42345); assay: Inhibition of mTORC2 in human A431 cells assessed as AKT phosphorylation at S473 residue incubated for 3 hrs by HTRF assay; assay type: cell-based
[3] = Kinetic aqueous solubility of compound in phosphate buffer at pH 7.4 at 100 uM at 20 degree C shaken for 24 hrs by HPLC analysis; assay type: physicochemical; details: read-out: Kinetic_solubility
[4] = target: Serine/threonine-protein kinase mTOR (Homo sapiens, UniProt P42345); assay: Inhibition of human recombinant GST-tagged mTOR catalytic domain (1360 to 2549 residues) expressed in baculovirus expression system using GFP-4E-BP1 peptide as substrate incubated for 1 hr by LanthaScreen assay
[5] = target: T1, Phosphatidylinositol 4,5-bisphosphate 3-kinase catalytic subunit delta isoform (Homo sapiens) (UniProt O00329); assay: Inhibition of wild-type human partial length PIK3CD (R108 to Q1044 residues) expressed in mammalian expression system at 10 uM by Kinomescan method
T1 sequence (whole entry): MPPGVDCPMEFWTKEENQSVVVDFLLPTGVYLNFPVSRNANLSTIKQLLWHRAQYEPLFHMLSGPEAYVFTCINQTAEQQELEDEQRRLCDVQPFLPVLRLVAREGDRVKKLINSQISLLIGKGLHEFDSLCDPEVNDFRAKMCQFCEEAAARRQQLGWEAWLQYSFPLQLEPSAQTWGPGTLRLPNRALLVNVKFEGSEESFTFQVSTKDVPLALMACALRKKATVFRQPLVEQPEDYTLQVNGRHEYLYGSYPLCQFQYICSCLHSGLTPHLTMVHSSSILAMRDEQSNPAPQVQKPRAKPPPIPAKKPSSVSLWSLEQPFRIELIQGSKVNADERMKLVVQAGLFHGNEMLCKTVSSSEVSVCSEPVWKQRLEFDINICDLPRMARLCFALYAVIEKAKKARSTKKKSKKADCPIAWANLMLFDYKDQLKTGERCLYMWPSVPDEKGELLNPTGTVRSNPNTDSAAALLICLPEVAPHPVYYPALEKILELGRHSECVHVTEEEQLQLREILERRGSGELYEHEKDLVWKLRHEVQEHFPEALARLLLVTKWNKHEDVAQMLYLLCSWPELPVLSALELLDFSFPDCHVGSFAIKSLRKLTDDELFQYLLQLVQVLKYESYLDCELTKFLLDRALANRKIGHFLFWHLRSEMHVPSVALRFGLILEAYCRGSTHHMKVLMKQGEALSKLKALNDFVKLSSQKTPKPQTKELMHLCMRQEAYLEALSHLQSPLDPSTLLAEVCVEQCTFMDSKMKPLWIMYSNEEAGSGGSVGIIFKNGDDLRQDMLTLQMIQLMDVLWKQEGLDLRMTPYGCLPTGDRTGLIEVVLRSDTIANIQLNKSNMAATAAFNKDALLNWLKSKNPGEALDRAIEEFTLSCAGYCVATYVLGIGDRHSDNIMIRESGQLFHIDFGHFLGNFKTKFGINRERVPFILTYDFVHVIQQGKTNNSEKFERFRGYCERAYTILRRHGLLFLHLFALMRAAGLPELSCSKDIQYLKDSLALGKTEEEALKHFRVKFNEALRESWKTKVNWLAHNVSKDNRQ

[6] = target: Phosphatidylinositol 4,5-bisphosphate 3-kinase catalytic subunit gamma isoform (Homo sapiens) (UniProt P48736); assay: Inhibition of wild-type human partial length PIK3CG (S144 to A1102 residues) expressed in mammalian expression system at 10 uM by Kinomescan method
Phosphatidylinositol 4,5-bisphosphate 3-kinase catalytic subunit gamma isoform (Homo sapiens), sequence (P48736 whole entry, looked up, the tested form may be a part, canonical isoform): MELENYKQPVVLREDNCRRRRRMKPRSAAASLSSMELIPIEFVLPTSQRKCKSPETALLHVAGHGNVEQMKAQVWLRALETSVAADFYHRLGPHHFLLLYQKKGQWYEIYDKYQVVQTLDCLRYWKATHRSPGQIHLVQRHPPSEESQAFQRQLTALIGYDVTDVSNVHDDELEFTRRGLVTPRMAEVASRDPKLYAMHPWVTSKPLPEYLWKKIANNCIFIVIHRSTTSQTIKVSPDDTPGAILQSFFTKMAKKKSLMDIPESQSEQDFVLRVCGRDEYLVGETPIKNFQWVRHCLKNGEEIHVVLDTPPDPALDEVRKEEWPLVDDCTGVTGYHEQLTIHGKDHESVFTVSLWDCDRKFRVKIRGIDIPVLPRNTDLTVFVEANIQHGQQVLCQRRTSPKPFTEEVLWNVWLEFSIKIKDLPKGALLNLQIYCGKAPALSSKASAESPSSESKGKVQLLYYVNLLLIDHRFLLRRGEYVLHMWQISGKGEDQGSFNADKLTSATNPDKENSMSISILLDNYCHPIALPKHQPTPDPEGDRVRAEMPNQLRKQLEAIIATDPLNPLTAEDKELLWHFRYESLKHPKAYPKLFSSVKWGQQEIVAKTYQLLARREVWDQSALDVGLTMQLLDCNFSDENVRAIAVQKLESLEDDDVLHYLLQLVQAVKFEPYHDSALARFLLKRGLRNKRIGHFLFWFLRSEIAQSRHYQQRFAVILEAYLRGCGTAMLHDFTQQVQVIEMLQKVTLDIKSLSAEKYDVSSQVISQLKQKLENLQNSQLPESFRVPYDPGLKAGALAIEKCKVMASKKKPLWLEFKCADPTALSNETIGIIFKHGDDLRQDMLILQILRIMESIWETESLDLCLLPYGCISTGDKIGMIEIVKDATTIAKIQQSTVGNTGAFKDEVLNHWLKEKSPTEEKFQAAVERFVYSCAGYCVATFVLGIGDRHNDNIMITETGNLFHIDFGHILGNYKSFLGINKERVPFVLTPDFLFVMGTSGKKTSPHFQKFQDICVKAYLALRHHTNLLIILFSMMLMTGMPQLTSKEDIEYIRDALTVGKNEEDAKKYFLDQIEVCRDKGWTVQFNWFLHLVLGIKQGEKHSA

[7] = target: Phosphatidylinositol 4,5-bisphosphate 3-kinase catalytic subunit beta isoform (Homo sapiens) (UniProt P42338); assay: Inhibition of wild-type human partial length PIK3CB (P118 to S1070 residues) expressed in mammalian expression system at 10 uM by Kinomescan method
Phosphatidylinositol 4,5-bisphosphate 3-kinase catalytic subunit beta isoform (Homo sapiens), sequence (P42338 whole entry, looked up, the tested form may be a part, canonical isoform): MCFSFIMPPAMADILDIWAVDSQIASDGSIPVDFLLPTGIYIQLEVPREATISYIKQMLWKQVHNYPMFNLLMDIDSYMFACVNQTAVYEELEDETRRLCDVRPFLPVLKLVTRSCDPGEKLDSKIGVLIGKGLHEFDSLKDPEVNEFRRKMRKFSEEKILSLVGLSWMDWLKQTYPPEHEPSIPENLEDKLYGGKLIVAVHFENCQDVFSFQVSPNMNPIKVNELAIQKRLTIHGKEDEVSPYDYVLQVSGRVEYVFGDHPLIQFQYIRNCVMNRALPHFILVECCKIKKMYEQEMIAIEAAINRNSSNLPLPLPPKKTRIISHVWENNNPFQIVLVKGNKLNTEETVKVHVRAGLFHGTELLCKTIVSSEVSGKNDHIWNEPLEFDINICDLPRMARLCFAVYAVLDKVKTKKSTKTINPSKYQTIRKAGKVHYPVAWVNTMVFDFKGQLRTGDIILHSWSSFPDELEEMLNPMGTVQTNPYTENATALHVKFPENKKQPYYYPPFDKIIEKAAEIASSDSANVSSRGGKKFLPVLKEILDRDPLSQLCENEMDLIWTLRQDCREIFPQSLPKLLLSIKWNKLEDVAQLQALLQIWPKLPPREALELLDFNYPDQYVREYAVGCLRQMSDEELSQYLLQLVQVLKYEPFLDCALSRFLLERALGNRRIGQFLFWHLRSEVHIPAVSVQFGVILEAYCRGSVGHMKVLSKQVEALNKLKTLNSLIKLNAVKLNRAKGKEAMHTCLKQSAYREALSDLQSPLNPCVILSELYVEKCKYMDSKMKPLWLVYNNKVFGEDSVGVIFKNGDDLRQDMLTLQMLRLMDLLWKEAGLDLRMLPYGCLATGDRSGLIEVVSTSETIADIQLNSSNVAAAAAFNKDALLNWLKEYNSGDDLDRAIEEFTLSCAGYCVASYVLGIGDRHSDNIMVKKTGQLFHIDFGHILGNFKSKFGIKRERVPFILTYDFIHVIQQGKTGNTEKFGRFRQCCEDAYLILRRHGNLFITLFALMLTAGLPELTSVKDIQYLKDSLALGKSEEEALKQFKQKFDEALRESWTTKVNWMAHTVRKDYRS

[8] = Lipophilicity, ChromlogD of compound at 0.5 mM at pH 6.5 by UPLC-UV analysis; details: buffer, pH 6.5, 500 µM
[9] = target: Phosphatidylinositol 4,5-bisphosphate 3-kinase catalytic subunit alpha isoform (Homo sapiens, UniProt P42336)
Phosphatidylinositol 4,5-bisphosphate 3-kinase catalytic subunit alpha isoform, sequence (P42336 whole entry, canonical isoform): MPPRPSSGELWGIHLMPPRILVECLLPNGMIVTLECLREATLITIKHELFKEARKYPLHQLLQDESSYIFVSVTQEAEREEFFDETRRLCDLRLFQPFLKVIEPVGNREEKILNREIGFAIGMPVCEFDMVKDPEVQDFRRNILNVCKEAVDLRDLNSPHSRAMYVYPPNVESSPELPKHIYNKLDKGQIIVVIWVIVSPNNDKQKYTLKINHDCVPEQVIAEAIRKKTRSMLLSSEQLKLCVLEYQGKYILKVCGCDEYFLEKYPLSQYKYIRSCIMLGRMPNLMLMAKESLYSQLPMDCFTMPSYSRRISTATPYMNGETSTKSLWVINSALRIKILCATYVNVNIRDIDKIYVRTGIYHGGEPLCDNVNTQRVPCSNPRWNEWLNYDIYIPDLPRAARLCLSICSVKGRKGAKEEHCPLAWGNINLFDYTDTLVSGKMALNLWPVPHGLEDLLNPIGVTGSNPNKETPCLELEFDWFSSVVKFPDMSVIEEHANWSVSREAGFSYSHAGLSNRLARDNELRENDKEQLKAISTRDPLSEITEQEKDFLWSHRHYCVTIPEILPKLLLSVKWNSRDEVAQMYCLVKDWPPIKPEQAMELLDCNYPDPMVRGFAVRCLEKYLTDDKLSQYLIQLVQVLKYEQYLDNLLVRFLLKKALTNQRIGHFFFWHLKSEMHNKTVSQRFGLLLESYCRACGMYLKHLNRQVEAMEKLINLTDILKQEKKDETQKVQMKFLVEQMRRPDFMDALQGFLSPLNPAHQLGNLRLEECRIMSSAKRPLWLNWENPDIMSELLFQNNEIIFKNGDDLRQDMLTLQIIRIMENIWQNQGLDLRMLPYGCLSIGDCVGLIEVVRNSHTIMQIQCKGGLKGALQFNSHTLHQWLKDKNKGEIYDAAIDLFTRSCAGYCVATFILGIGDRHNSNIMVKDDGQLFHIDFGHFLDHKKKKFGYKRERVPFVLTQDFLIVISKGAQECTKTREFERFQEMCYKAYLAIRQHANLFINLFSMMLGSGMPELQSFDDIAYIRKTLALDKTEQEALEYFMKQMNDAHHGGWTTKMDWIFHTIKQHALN
Description: Inhibition of PI3Kalpha (unknown origin) using PIP2 as substrate measured after 30 mins by TR-FRET assay

mTORC1 = mTORC1 (Homo sapiens, UniProt P42345); assay: Inhibition of mTORC1 in human A431 cells assessed as S6RP phosphorylation incubated for 3 hrs by HTRF assay; assay type: cell-based
[10] = target: T2, Phosphatidylinositol 3-kinase C2 domain-containing subunit gamma (Homo sapiens) (UniProt O75747); assay: Inhibition of wild-type human partial length PIK3C2G (M1 to I1446 residues) expressed in mammalian expression system at 10 uM by Kinomescan method
T2 sequence (whole entry): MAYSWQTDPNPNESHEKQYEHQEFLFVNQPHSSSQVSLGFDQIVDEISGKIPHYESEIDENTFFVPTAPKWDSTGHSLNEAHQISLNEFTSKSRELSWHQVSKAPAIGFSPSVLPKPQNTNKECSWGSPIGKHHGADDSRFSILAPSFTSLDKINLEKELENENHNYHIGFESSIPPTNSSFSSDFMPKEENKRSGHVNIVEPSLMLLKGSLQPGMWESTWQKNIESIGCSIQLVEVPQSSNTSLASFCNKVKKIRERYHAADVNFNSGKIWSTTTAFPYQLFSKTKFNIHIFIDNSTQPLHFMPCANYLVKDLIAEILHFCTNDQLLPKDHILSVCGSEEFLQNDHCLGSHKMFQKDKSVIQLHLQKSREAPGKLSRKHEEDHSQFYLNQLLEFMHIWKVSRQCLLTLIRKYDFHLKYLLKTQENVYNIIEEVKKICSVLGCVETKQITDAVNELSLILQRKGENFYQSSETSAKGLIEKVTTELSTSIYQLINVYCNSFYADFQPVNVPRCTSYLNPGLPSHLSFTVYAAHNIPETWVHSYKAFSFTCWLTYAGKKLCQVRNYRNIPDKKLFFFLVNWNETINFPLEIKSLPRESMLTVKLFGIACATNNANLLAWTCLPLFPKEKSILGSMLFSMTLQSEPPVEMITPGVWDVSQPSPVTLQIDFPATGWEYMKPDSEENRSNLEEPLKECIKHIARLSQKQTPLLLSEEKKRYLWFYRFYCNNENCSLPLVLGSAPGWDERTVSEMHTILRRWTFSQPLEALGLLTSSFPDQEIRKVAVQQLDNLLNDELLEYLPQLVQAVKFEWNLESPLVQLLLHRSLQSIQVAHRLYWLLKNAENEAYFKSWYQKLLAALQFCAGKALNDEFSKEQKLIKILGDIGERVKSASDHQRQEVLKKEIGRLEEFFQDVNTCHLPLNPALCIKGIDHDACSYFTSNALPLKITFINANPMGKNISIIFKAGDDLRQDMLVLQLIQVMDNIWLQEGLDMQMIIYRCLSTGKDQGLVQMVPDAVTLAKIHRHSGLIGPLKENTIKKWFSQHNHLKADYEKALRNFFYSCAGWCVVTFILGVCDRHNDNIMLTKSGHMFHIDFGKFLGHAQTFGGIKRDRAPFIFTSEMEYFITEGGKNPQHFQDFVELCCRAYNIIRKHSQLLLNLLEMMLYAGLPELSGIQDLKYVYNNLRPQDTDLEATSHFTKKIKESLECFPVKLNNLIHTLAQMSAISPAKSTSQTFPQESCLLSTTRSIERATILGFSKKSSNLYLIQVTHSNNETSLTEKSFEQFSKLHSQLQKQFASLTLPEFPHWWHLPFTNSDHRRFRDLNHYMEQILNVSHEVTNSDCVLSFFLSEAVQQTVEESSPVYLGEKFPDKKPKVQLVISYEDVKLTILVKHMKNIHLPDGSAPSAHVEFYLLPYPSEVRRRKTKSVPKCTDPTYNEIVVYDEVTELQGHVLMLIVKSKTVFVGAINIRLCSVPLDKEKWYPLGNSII

[11] = Metabolic stability in human liver microsomes assessed as parent compound remaining at 1 uM measured at 15 mins in presence of phase 1 metabolism cofactors by LC-MS/MS analysis; assay type: ADME, Microsome; details: read-out: Stability

CC(C)n1nc(-c2ccc3oc(N)nc3c2)c2c(=O)[nH]cnc21
inhibition [1]: inactive
CLH [2]: < 5 µL/min
IC50 (mTORC2): 0.13 µM
solubility kinetic at 24 h, 100 µM [3]: 3 µM (≈ 0.931 µg/mL)
Ki [4]: 0.028 µM
inhibition [5]: inactive
inhibition [6]: inactive
inhibition [7]: inactive
ChromlogD6.5 [8]: 0.9
Ki [9]: > 10 µM
IC50 (mTORC1): 0.03 µM
inhibition [10]: inactive
remaining at 0.25 h, 1 µM [11]: > 95%
